Measured values published in patent publication US20190345202A1, “ANDROGEN RECEPTOR ANTISENSE OLIGONUCLEOTIDES” (OliPass Corporation, priority 2016, published 2019).
[C(1O2)] = PNA monomer with modified cytosine C(1O2), structure; [A(5)] = PNA monomer with modified adenine A(5), structure; {Fethoc} = Fethoc group on PNA N-terminus; {NH2} = C-terminal amide

Assays:
AR protein = experiment: AR IHC of tissues of mice subcutaneously administered; format: in vivo, mouse; settings: subcutaneous, dose increased from 0.01 to 0.1 pmole/Kg, 2× per week for 4 weeks, male C57BL/6 mice
Description: 12 weeks old male C57BL/6 mice were randomly assigned to 3 groups of negative control (no ASO treatment), 0.01 pmole/Kg “ASO 10” and 0.1 pmole/Kg “ASO 10”. (3 animals per group) Mice subcutaneously received either vehicle or ASO dissolved in vehicle (PBS) 2× per week for 4 weeks according to the dosing group. Three days post the final dosing, the animals were anesthetized with zoletil/rompun and subjected to tissue or organ sampling for AR IHC by paraffin blolck.
The AR protein was probed in series with a primary antibody (Cat. No. sc-816, Santa Cruz) at 1:100 dilution, a secondary anti-rabbit IgG (Cat. No. BA-1100, VECTOR) at 1:200 dilution, and Dylight 594-Streptavidin (Cat. No. SA-5594, VECTOR) at 1:200. Nucleus was stained with DAPI. IHC fluorescence images were captured on a Zeiss slide scanner.

human AR mRNA = experiment: qPCR (TaqMan probe) of AR mRNA level in MCF7 cells; format: cell-based; settings: 1 zM to 1 aM, 24 hours
Description: The qPCR reaction was monitored with a TaqMan probe of [(5′→3′) TTTCTTCAG-ZEN-CTTCCGGGCTC-3IABkFQ (SEQ ID NO: 19)].

androgen receptor = experiment: AR IHC of skin samples after topical administration in mice; format: in vivo, mouse; settings: topical 1, 5, or 25 fM, skin samples Day 30
Description: [AR IHC of Skin Sample] Following the shaving in Day 21, the mice received a single topical administration of either vehicle or “ASO 1” according to the group. In Day 24, the skin of the area with hair removal was sampled for immunohistochemistry (IHC) analysis against androgen receptor. The skin samples were cryo-sectioned and subjected to immunostaining in series with a primary anti-AR antibody (Cat. No. sc-816, Santa Cruz) at 1:100 dilution, with a secondary anti-IgG (Cat No. BA-1100, Vector) at 1:200 dilution, and then with Dylight 594-steptavidin (Cat No. SA-5594, Vector, Calif., USA) at 1:200 dilution for red fluoresence tagging. The IHC images were captured on an Olympus fluorescence microscope for changes in the AR expression level upon topical treatment with “ASO 1”.
[AR Immunohistochemistry of Skin Samples] After the hair cut in Day 27, The animals topically received further either vehicle or “ASO 10” at 1, 5, or 25 fM in Days 27 and 29. Skin samples of the back were collected in Day 30 for immunohistochemical analysis against androgen receptor. The skin samples were subjected to immunostaining against androgen receptor as described in “Example 7”. IHC images were captured on a Zeiss slide scanner. FIG. 14B is a representative set of AR IHC images. […] It would be difficult to clearly state that the AR expression in hair follicles decreased in the treatment groups due to the marked increases in the number of hair follicles in the treatment groups.

human AR pre-mRNA = experiment: AR nested PCR for skipping of AR exon 5 in MCF7 cells; format: cell-based; settings: 3 aM to 3 fM, 3 hours
Procedure: “ASO 5” was evaluated by AR nested PCR for its ability to induce the skipping of AR “exon 5” in MCF7 cells (Cat. Number: HTB-22, ATCC). The employed procedures are detailed as follows.
[Cell Culture & ASO Treatment] MCF7 cells were grown in EMEM medium supplemented with 10% FBS, 1% streptomycin/penicillin, and 0.01 mg/ml bovine insulin under 5% CO2 atmosphere at 37° C. Cells were sub-cultured in 60 mm culture dish prior to treatment with “ASO 5” at 3 aM to 3 fM.
[RNA Extraction] MCF7 cells were incubated with or without “ASO 5” for 3 hours. Total RNA was extracted from cells in 60 mm culture dish using “Universal RNA Extraction Kit” (Cat. No. 9767, Takara) according to the manufacturer's instructions [cDNA Synthesis by One-step PCR]
[Nested PCR Amplification] Throughout the amplification process, was used a unique amplification technique (touch up as increasing annealing temperature per cycle) that worked efficiently and specifically over a temperature range, rather than at one specific annealing temperature (i.e. conventional PCR method). […]
[Identification of Exon Skipping Products] […] The bands of target size were collected and analyzed by Sanger Sequencing. […]

| Substance | AR expression in epidermis distal to the injection site, liver, testis and prostate (IHC) (AR protein) | decrease of relative expression level of exons 4-6 (TaqMan) (human AR mRNA) | number of hair follicles vs negative control group (IHC images) (androgen receptor) | AR expression in the muscle layer underneath the dermis (IHC) (androgen receptor; most notable at 5 fM) | exon skipping (AR mRNA splice variants by nested PCR and Sanger sequencing) (human AR pre-mRNA) |
| --- | --- | --- | --- | --- | --- |
| Fethoc-C(1O2)TT-A(5)CC-A(5)GG(6)-CA(5)A-NH2 (antisense CTTACCAGGCAA; N-Fethoc, C-terminal amide, chemistry not fully specified) [ASO 10] | markedly decreased | 50 to 70% | increased markedly | markedly decreased | – |
| Fethoc-C(1O2)TT-A(5)CC-A(5)GG-C(1O2)AA(5)-G-NH2 (antisense CTTACCAGGCAAG; all peptide nucleic acid (PNA), [C(1O2)] at 1, 10, [A(5)] at 4, 7, 12, 5' {Fethoc}, 3' {NH2}; peptide nucleic acid, written N to C terminus) [ASO 5] | – | – | – | – | induce the skipping of “exon 5”, “exons 4-5”, and “exons 4-6” |
